Experimental data published in patent US20160375006A1, “USES OF PARALOG-SELECTIVE INHIBITORS OF GSK3 KINASES” (priority 2012, published 2016).

Legend:
RET = RET (Homo sapiens, UniProt P07949)
Procedure: (§1) This was completed utilizing one of two assays depending on the kinase being examined.
(§2) A solution of IMAP binding reagent (IMAP Screening Express kit; Molecular Devices) (60 μL) was added to each well and incubated for 30 minutes.
(§3) A solution of termination buffer (QuickScout Screening assist MSA; Carna Biosciences) (60 μL) was added to each well. The entire reaction mixture was then applied to a LabChip3000 system (Caliper Life Science) and the product and substrate peptide peaks were separated and quantified.

CK2α2/β = CK2α2/β (Homo sapiens, UniProt P19784)
Procedure: as §1, §2, §3
(§4) The assay utilized was identical to that of the single point inhibitory activity determination (MSA) but run in dose response. […] A solution of termination buffer (QuickScout Screening assist MSA; Carna Biosciences) (60 μL) was added to each well. The entire reaction mixture was then applied to a LabChip3000 system (Caliper Life Science) and the product and substrate peptide peaks were separated and quantified.

FGFR1 = FGFR1 (Homo sapiens, UniProt P11362)
Procedure: as §1, §2, §3, §4

ALK(R1275Q) = ALK(R1275Q) (Homo sapiens, UniProt Q9UM73, R1275Q)
Procedure: as §1, §2, §3, §4

TEC = TEC (Homo sapiens, UniProt P42680)
Procedure: as §1, §2, §3, §4

DYRK1B = DYRK1B (Homo sapiens, UniProt Q9Y463)
Procedure: as §1, §2, §3, §4

PKCι = PKCι (Homo sapiens, UniProt P41743)
Source text: as §1
The assay utilized was identical to that of the single point inhibitory activity determination (MSA) but run in dose response.

TXK = TXK (Homo sapiens, UniProt P42681)
Procedure: as §1, §2, §3, §4

JNK2 = JNK2 (Homo sapiens, UniProt P45984)
Procedure: as §1, §2, §3, §4

EPHA4 = EPHA4 (Homo sapiens, UniProt P54764)
Procedure: as §1, §2, §3, §4

NEK6 = NEK6 (Homo sapiens, UniProt Q9HC98)
NEK6, sequence (Q9HC98 whole entry): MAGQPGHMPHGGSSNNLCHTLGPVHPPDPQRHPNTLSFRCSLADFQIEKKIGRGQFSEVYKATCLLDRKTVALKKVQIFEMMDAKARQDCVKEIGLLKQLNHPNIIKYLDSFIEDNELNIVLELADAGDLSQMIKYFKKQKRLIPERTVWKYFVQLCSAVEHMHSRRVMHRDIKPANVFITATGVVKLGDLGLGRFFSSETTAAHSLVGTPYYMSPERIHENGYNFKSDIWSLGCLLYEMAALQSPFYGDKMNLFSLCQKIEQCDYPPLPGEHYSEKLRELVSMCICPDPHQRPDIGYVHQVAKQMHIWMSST
Procedure: as §1, §2, §3

SGK3 = SGK3 (Homo sapiens, UniProt Q96BR1)
Procedure: as §1, §2, §3, §4

COT_Cascade = COT_Cascade (Homo sapiens, UniProt P41279)
Procedure: as §1, §2, §3, §4

MAP2K7_Cascade = MAP2K7_Cascade (Homo sapiens, UniProt O14733)
Procedure: as §1, §2, §3, §4

EPHB3 = EPHB3 (Homo sapiens, UniProt P54753)
Procedure: as §1, §2, §3, §4

SRM = SRM (Homo sapiens, UniProt Q9H3Y6)
Procedure: as §1, §2, §3, §4

PKCα = PKCα (Homo sapiens, UniProt P17252)
Procedure: as §1, §2, §3, §4

MSK1 = MSK1 (Homo sapiens, UniProt O75582)
Procedure: as §1, §2, §3

JAK2 = JAK2 (Homo sapiens, UniProt O60674)
Procedure: as §1, §2, §3, §4

p38β = p38β (Homo sapiens, UniProt Q15759)
Procedure: as §1, §2, §3, §4

NuaK2 = NuaK2 (Homo sapiens, UniProt Q9H093)
Procedure: as §1, §2, §3, §4

MST4 = MST4 (Homo sapiens, UniProt Q9P289)
Procedure: as §1, §2, §3, §4

FGFR3 = FGFR3 (Homo sapiens, UniProt P22607)
Procedure: as §2, §3, §4

AurC = AurC (Homo sapiens, UniProt Q9UQB9)
Procedure: as §1, §2, §3

DAPK1 = DAPK1 (Homo sapiens, UniProt P53355)
Procedure: as §1, §2, §3, §4

DDR1 = DDR1 (Homo sapiens, UniProt Q08345)
DDR1, sequence (Q08345 19-913): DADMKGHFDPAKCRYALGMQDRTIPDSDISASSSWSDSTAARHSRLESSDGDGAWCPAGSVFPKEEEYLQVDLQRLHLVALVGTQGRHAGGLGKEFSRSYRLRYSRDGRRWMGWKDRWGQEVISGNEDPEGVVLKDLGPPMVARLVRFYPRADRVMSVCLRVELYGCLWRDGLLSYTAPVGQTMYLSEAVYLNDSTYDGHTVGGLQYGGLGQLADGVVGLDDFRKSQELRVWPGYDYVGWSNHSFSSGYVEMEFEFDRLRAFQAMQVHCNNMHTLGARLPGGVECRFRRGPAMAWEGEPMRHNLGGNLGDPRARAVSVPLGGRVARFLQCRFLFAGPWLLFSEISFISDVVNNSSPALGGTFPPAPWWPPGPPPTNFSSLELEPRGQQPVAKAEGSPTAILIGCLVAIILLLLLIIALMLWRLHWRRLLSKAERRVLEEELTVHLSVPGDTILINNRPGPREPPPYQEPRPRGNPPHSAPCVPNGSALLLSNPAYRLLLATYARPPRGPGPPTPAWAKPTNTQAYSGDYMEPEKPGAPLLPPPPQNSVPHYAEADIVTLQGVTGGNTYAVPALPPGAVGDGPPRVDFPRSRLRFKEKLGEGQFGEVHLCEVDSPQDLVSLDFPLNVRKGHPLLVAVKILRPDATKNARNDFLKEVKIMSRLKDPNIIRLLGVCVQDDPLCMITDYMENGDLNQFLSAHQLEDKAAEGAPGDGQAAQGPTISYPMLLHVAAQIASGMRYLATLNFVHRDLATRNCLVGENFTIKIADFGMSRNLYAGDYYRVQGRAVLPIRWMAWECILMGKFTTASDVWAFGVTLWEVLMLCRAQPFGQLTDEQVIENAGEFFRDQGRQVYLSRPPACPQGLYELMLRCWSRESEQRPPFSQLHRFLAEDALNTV
Procedure: as §1, §2, §3, §4

BRSK1 = BRSK1 (Homo sapiens, UniProt Q8TDC3)
Procedure: as §1, §2, §3, §4

INSR = INSR (Homo sapiens, UniProt P06213)
TBK1 = TBK1 (Homo sapiens, UniProt Q9UHD2)
Procedure: as §1, §2, §3

HIPK3 = HIPK3 (Homo sapiens, UniProt Q9H422)
Procedure: as §1, §2, §3, §4

PIM2 = PIM2 (Homo sapiens, UniProt Q9P1W9)
Procedure: as §1, §2, §3, §4

MST1 = MST1 (Homo sapiens, UniProt Q13043)
MST1, sequence (Q13043 whole entry): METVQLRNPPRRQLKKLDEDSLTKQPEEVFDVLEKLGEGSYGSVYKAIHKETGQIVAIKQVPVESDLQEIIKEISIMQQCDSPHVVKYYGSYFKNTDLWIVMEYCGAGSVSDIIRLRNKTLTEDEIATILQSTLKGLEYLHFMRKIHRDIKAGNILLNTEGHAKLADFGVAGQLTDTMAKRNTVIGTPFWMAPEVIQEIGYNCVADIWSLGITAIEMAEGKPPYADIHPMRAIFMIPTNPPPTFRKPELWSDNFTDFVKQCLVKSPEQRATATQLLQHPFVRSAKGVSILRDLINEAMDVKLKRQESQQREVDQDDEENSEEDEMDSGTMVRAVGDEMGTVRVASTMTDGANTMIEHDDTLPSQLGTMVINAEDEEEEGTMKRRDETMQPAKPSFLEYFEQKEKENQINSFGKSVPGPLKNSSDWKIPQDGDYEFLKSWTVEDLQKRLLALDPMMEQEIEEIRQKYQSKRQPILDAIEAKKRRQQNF
Procedure: as §1, §2, §3, §4

FLT1 = FLT1 (Homo sapiens, UniProt P17948)
Procedure: as §1, §2, §3, §4

ALK = ALK (Homo sapiens, UniProt Q9UM73)
Procedure: as §1, §2, §3

ACK = ACK (Homo sapiens, UniProt Q07912)
Procedure: as §1, §2, §3, §4

MER = MER (Homo sapiens, UniProt Q12866)
Procedure: as §1, §2, §3, §4

EPHA3 = EPHA3 (Homo sapiens, UniProt P29320)
EPHA3, sequence (P29320 21-983): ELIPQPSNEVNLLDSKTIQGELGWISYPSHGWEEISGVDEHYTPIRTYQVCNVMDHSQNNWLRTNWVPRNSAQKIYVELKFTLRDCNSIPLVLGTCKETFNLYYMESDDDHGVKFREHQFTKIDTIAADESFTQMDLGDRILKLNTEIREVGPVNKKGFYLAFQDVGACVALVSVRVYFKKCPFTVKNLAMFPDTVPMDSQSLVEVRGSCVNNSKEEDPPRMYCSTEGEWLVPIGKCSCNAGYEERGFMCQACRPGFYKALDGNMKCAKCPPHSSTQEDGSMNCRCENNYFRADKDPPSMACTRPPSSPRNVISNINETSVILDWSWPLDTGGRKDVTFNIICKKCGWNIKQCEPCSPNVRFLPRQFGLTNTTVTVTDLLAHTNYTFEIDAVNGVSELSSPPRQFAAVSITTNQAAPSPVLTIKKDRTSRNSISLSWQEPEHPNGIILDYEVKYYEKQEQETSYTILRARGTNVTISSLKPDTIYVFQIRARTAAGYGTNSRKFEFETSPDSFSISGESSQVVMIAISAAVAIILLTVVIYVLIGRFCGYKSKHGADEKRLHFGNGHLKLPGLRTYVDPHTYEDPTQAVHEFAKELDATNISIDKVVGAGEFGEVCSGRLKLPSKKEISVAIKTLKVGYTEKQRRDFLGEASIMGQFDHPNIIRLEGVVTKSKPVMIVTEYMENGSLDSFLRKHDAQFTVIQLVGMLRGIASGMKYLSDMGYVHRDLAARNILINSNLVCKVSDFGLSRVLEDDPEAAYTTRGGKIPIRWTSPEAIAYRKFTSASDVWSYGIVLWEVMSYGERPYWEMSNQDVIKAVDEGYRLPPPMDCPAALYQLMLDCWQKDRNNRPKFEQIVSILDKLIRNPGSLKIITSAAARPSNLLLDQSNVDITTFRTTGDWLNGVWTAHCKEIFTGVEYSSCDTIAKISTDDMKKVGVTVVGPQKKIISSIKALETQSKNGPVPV
Procedure: as §1, §2, §3, §4

JAK1 = JAK1 (Homo sapiens, UniProt P23458)
Procedure: as §1, §2, §3, §4

NPM1-ALK = NPM1-ALK (Homo sapiens, UniProt Q9UM73)
Procedure: as §1, §2, §3

RSK4 = RSK4 (Homo sapiens, UniProt Q9UK32)
Procedure: as §1, §2, §3

HER4 = HER4 (Homo sapiens, UniProt Q15303)
Procedure: as §1, §2, §3

FGFR1, sequence (P11362 22-822): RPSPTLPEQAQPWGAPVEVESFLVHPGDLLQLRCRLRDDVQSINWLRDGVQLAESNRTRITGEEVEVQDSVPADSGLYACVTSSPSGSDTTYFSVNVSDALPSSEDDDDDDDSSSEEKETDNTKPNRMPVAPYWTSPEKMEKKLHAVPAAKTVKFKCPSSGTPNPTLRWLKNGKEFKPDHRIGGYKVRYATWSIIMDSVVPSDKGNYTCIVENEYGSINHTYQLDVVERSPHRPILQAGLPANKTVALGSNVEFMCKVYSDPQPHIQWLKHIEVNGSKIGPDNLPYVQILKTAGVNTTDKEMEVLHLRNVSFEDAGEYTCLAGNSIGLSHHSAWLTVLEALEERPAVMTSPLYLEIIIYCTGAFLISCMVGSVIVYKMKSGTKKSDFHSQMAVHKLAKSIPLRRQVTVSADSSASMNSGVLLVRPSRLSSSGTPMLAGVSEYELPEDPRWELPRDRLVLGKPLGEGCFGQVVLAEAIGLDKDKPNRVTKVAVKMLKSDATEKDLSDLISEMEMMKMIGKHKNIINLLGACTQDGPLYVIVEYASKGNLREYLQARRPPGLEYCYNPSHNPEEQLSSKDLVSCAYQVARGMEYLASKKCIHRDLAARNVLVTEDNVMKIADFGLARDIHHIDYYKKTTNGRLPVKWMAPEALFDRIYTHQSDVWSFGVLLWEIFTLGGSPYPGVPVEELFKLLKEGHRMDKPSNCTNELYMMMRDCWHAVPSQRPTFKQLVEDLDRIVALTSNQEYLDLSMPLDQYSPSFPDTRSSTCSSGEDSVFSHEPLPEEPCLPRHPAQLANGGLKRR
ALK(R1275Q), sequence (Q9UM73 19-1620 R1275Q): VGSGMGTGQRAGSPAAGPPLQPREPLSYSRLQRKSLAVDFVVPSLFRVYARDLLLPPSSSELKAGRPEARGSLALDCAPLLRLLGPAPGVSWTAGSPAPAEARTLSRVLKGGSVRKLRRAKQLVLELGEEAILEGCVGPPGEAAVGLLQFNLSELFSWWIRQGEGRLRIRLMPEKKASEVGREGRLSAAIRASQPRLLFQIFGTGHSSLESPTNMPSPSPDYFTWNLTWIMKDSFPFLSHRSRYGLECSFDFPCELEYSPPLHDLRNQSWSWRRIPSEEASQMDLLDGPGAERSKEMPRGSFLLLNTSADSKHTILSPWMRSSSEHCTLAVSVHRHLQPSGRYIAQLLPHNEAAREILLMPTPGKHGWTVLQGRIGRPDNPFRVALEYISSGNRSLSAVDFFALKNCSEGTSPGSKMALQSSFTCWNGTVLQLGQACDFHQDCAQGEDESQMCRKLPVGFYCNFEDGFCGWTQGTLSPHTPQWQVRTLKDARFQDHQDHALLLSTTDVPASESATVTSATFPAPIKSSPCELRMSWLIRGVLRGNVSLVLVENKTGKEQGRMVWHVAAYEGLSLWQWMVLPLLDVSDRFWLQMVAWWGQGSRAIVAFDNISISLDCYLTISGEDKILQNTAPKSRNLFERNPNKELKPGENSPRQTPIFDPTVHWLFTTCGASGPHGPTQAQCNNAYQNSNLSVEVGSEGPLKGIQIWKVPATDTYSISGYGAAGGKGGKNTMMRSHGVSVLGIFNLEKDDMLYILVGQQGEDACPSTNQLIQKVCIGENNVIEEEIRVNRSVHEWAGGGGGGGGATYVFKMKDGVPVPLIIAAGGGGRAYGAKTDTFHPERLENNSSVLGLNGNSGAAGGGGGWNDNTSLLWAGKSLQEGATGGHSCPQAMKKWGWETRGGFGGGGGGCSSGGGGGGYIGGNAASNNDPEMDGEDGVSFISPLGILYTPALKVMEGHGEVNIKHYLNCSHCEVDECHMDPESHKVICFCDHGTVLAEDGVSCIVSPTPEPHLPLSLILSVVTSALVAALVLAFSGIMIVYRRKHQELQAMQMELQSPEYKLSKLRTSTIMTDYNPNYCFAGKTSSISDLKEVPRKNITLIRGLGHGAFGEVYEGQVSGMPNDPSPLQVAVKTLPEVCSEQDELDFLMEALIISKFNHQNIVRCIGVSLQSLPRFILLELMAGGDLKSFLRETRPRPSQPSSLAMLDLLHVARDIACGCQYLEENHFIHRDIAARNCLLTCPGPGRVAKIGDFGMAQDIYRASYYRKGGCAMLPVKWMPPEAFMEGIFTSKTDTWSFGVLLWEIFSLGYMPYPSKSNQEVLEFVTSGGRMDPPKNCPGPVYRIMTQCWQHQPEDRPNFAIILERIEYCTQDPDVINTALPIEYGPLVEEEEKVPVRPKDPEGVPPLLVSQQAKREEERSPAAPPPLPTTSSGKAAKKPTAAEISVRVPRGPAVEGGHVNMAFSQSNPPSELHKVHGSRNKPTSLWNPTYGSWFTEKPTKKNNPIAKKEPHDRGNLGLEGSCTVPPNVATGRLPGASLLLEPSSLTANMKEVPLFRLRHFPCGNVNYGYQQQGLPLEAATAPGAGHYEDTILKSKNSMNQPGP

For `CC[C@@]1(c2ccccc2)C2=C(CC(C)(C)CC2=O)Nc2n[nH]cc21` [BRD0705], the “% Inhibition at 10 μM” value (RET) was −5.6%, the “% Inhibition at 10 μM” value (CK2α2/β) was −7.0% and the “% Inhibition at 10 μM” value (FGFR1) was −2.7%. For the same molecule, the “% Inhibition at 10 μM” value (ALK(R1275Q)) was 0.7%, the “% Inhibition at 10 μM” value (TEC) was −0.4% and the “% Inhibition at 10 μM” value (DYRK1B) was −6.1%. The “% Inhibition at 10 μM” value (PKCι) was −4.3%, the “% Inhibition at 10 μM” value (TXK) was −1.7% and the “% Inhibition at 10 μM” value (JNK2) was −2.5%. The “% Inhibition at 10 μM” value (EPHA4) was 4.0%, the “% Inhibition at 10 μM” value (NEK6) was −5.7% and the “% Inhibition at 10 μM” value (SGK3) was −1.8%. For the same molecule, the “% Inhibition at 10 μM” value (COT_Cascade) was 11.2%, the “% Inhibition at 10 μM” value (MAP2K7_Cascade) was −0.6% and the “% Inhibition at 10 μM” value (EPHB3) was −1.3%. For the same molecule, the “% Inhibition at 10 μM” value (SRM) was −5.5%, the “% Inhibition at 10 μM” value (PKCα) was −0.5% and the “% Inhibition at 10 μM” value (MSK1) was −27.1%. The “% Inhibition at 10 μM” value (JAK2) was −0.5%, the “% Inhibition at 10 μM” value (p38β) was −2.7% and the “% Inhibition at 10 μM” value (NuaK2) was −1.7%. For the same molecule, the “% Inhibition at 10 μM” value (MST4) was −0.4%, the “% Inhibition at 10 μM” value (FGFR3) was −2.8% and the “% Inhibition at 10 μM” value (AurC) was 7.3%. For the same molecule, the “% Inhibition at 10 μM” value (DAPK1) was −6.0%, the “% Inhibition at 10 μM” value (DDR1) was −2.0% and the “% Inhibition at 10 μM” value (BRSK1) was −1.6%. The “% Inhibition at 10 μM” value (INSR) was −1.4%, the “% Inhibition at 10 μM” value (TBK1) was 1.7% and the “% Inhibition at 10 μM” value (HIPK3) was −7.6%. For the same molecule, the “% Inhibition at 10 μM” value (PIM2) was 0.5%, the “% Inhibition at 10 μM” value (MST1) was −7.3% and the “% Inhibition at 10 μM” value (FLT1) was −2.6%. For the same molecule, the “% Inhibition at 10 μM” value (ALK) was 1.1%, the “% Inhibition at 10 μM” value (ACK) was −4.5% and the “% Inhibition at 10 μM” value (MER) was −3.3%. For the same molecule, the “% Inhibition at 10 μM” value (EPHA3) was 25.2%, the “% Inhibition at 10 μM” value (JAK1) was −1.3% and the “% Inhibition at 10 μM” value (NPM1-ALK) was 3.7%. For the same molecule, the “% Inhibition at 10 μM” value (RSK4) was 1.1% and the “% Inhibition at 10 μM” value (HER4) was 1.3%.

In the case of `CC(C)(C)Cc1[nH]nc2c1[C@](C)(c1ccccc1)C1=C(CC(C)(C)CC1=O)N2` [BRD3731], the “% Inhibition 10 μM” value (RET; 10 μM) is reported as 3.0%, the “% Inhibition 10 μM” value (CK2α2/β; 10 μM) is reported as −2.3% and the “% Inhibition 10 μM” value (FGFR1; 10 μM) is reported as 2.3%. For the same molecule, the “% Inhibition 10 μM” value (ALK(R1275Q); 10 μM) was 1.9%, the “% Inhibition 10 μM” value (TEC; 10 μM) was 2.3% and the “% Inhibition 10 μM” value (DYRK1B; 10 μM) was 2.0%. For the same molecule, the “% Inhibition 10 μM” value (PKCι; 10 μM) was 2.5%, the “% Inhibition 10 μM” value (TXK; 10 μM) was 1.3% and the “% Inhibition 10 μM” value (JNK2; 10 μM) was −3.9%. The “% Inhibition 10 μM” value (EPHA4; 10 μM) was −2.7%, the “% Inhibition 10 μM” value (NEK6; 10 μM) was 0.0% and the “% Inhibition 10 μM” value (SGK3; 10 μM) was −5.2%. The “% Inhibition 10 μM” value (COT_Cascade; 10 μM) was 10.5%, the “% Inhibition 10 μM” value (MAP2K7_Cascade; 10 μM) was 3.0% and the “% Inhibition 10 μM” value (EPHB3; 10 μM) was 0.1%. For the same molecule, the “% Inhibition 10 μM” value (SRM; 10 μM) was 0.9%, the “% Inhibition 10 μM” value (PKCα; 10 μM) was 8.1% and the “% Inhibition 10 μM” value (MSK1; 10 μM) was 7.4%. The “% Inhibition 10 μM” value (JAK2; 10 μM) was 3.0%, the “% Inhibition 10 μM” value (p38β; 10 μM) was −0.2% and the “% Inhibition 10 μM” value (NuaK2; 10 μM) was −2.8%. The “% Inhibition 10 μM” value (MST4; 10 μM) was 6.4%, the “% Inhibition 10 μM” value (FGFR3; 10 μM) was −0.7% and the “% Inhibition 10 μM” value (AurC; 10 μM) was 4.9%. The “% Inhibition 10 μM” value (DAPK1; 10 μM) was −3.4%, the “% Inhibition 10 μM” value (DDR1; 10 μM) was 7.6% and the “% Inhibition 10 μM” value (BRSK1; 10 μM) was 7.9%. The “% Inhibition 10 μM” value (INSR; 10 μM) was −2.8%, the “% Inhibition 10 μM” value (TBK1; 10 μM) was −0.5% and the “% Inhibition 10 μM” value (HIPK3; 10 μM) was 3.2%. For the same molecule, the “% Inhibition 10 μM” value (PIM2; 10 μM) was 0.8%, the “% Inhibition 10 μM” value (MST1; 10 μM) was 3.9% and the “% Inhibition 10 μM” value (FLT1; 10 μM) was 3.2%. For the same molecule, the “% Inhibition 10 μM” value (ALK; 10 μM) was 3.0%, the “% Inhibition 10 μM” value (ACK; 10 μM) was −1.3% and the “% Inhibition 10 μM” value (MER; 10 μM) was 33.7%. The “% Inhibition 10 μM” value (EPHA3; 10 μM) was 3.0%, the “% Inhibition 10 μM” value (JAK1; 10 μM) was 3.7% and the “% Inhibition 10 μM” value (NPM1-ALK; 10 μM) was −2.1%. For the same molecule, the “% Inhibition 10 μM” value (RSK4; 10 μM) was 33.9% and the “% Inhibition 10 μM” value (HER4; 10 μM) was 6.5%.
